One may read the EC50 as the concentration needed to bring the measured effect to its halfway point. Read a high EC50 as lower potency in that assay.

The text below walks through data of patent US20230365590A1, “BIPHENYL COMPOUND AS IMMUNOMODULATOR, PREPARATION METHOD THEREFOR AND APPLICATION THEREOF” (SHENZHEN CHIPSCREEN BIOSCIENCES CO., LTD., priority 2020, published 2023).

This assay concerns PD-1/PD-L1 mediated inhibitory signal to T cell activation (CHO-PD-L1-CD3L cells and Jurkat-PD-1-NFAT cells). Description: Blocking of PD-1/PD-L1 mediated inhibitory signal to T cell activation at cell level (NFAT luciferase reporter, co-culture). Format: cell-based. The settings on record: Homo sapiens, CHO-PD-L1-CD3L / Jurkat-PD-1-NFAT co-culture, 6 h. As to the method: In order to test the effect of interaction between PD-1 and PD-L1 on T cell activation signal in immune response, CHO-PD-L1-CD3L cells stably expressing human PD-L1 molecule and anti-CD3 single-chain antibody (ScFv) and Jurkat-PD-1-NFAT cells stably expressing human PD-1 molecule and NFAT reporter gene were constructed. When two kinds of cells are incubated together, anti-CD3 ScFv on the CHO cell surface and membrane CD3 molecule of Jurkat cell combine to transmit an activation signal into Jurkat cell. However, due to the binding of PD-L1 on the CHO cell surface and PD-1 molecule on the Jurkat cell surface at the same time, a signal for inhibiting activation is transmitted inward, so that luciferase reporter gene cannot be expressed. When an immunocheckpoint antibody or small-molecule inhibitor is added, the binding of PD-1 and PD-L1 is blocked, the NFAT pathway activated by CD3 ScFv antibody and CD3 cross-linking mediated T cell activation signal is no longer affected by the inhibitory signal, and the downstream luciferase reporter gene starts to be expressed. Chemiluminescence signals proportional to reporter gene activation can be detected by adding a catalytic substrate.
CHO-PD-L1-CD3L cells expressing human PD-L1 molecule and anti-CD3 single-chain antibody (ScFv) and Jurkat-PD-1-NFAT cells stably expressing human PD-1 molecule and NFAT reporter gene were all independently constructed and presented by Dr. Chen Bo (KeyMed Biosciences (Chengdu) Co., Ltd. Puromycin (Cat # 540411) and Hygromycin B (Cat # V900372) for stable culture of transfected cells were purchased from Sigma, PMA (Cat # P1585) was purchased from Sigma, and the anti human PD-L1 antibody (Cat # GMP-A066) was purchased from Novoprotein Company. The Luciferase substrate solution (Cat # E6485) and the luciferase-specific cell lysate 5×(Cat # E1531) were purchased from Promega company. The fluorescence detector Tecan (Spark 10M) was purchased from Tecan Company in Switzerland.
Main Process of Experiment • (1) On the day before the experiment, 100 μL of CHO-PD-L1-CD3L cells (about 4×10^4 cells/well) were inoculated at 37° C. overnight in a 96-well cell culture plate, and the culture medium was DMEM/F12 containing 10% FBS, 8 μg/mL Puromycin and 200 μg/mL Hygromycin B. • (2) The test compound was diluted with 0.1% PBST to obtain solutions with different concentration gradients, and then added into 96-well plates and incubated for 30 min in advance. The RPMI 1640 complete medium containing 10% FBS, 8 μg/mL Puromycin and 200 μg/mL Hygromycin B was used to adjust the Jurkat-PD-1-NFAT cell count to 2×10^5 cells/mL, and 100 ng/mL PMA (10 mg/mL storage solution prepared with DMSO) was added to amplify the T cell activation signal. 100 μL of the Jurkat-PD-1-NFAT cells were added into each well of the 96-well plates for co-culture. • (3) During the test reaction, control groups were set, including the solvent control without adding the test compound and the positive control with the addition of the […] in the experimental system. All tests were conducted by use of multiple holes. • (4) Incubation was continued at 37° C. for 6 h, 40 μL of 5×cell lysate was added directly, the solution was mixed well and placed at room temperature for 10 min to completely lyse cells. 50 μL of lysed cell solution was transferred to a fluorescence detection plate, 30 μL of luciferase substrate solution was then added, and the chemiluminescence detection program was immediately selected on the fluorescence detector for determination. • (5) Calculation formula of the inhibition rate of the test compound against T cell activation signal at the cell level: The inhibition rate against T cell activation signal (%)=(original chemiluminescence value of the test hole−solvent control)/(the highest original chemiluminescence value determined in the compound test hole−solvent control)×100%. […]
For orientation: Reporter assays use an easily measured gene product as a stand-in for the process of interest.
`COCC12CCC(CCCN3CCc4c(nc(C(=O)Nc5cccc(-c6cccc(NC(=O)c7nc8c(n7C)CCN(CCC79CCC(C(=O)O)(CC7)C9)C8)c6C)c5Cl)n4C)C3)(CC1)C2` [Compound I-1, 4-(2-(2-((2′-chloro-3′-(5-(3-(4-(methoxymethyl)bicyclo[2. 2.1]heptan-1-yl)propyl)-1-methyl-4,5,6,7-tetrahydro-1H-imidazo[4,5-c]pyridine-2-carboxamido) -2-methyl-[1,1′-biphenyl]-3-yl)carbamoyl)-1-methyl-1,4,6,7-tetrahydro-5H-imidazo[4,5-c]pyridin-5-yl)ethyl)bicyclo[2.2.1]heptane-1-carboxylic acid]: the EC50 worked out at 33.9 nM.
To `COCC12CCC(CCCN3CCc4c(nc(C(=O)Nc5cccc(-c6cccc(NC(=O)c7nc8c(n7C)CCN(CCC79CCC(C(=O)O)(CC7)C9)C8)c6Cl)c5C)n4C)C3)(CC1)C2` [Compound I-2, 4-(2-(2-((2-chloro-3′-(5-(3-(4-(methoxymethyl)bicyclo[2.2.1]heptan-1-yl)propyl)-1-methyl-4,5,6,7-tetrahydro-1H-imidazo[4,5-c]pyridine-2-carboxamido)-2′-methyl-[1,1′-biphenyl]-3-yl)carbamoyl)-1-methyl-1,4,6,7-tetrahydro-5H-imidazo[4,5-c]pyridin-5-yl)ethyl)bicyclo[2.2.1]heptane-1-carboxylic acid] belongs 18.1 nM; to `CCOCC12CCC(CCN3CCc4c(nc(C(=O)Nc5cccc(-c6cccc(NC(=O)c7nc8c(n7C)CCN(CCC79CCC(C(=O)O)(CC7)C9)C8)c6C)c5Cl)n4C)C3)(CC1)C2` [Compound I-3, 4-(2-(2-((2′-chloro-3′-(5-(2-(4-(ethoxymethyl)bicyclo[2.2.1]heptan-1-yl)ethyl)-1-methyl-4,5 ,6,7-tetrahydro-1H-imidazo[4,5-c]pyridine-2-carboxamido)-2-methyl-[1,1′-biphenyl]-3-yl)carbamoyl)-1-methyl-1,4,6,7-tetrahydro-5H-imidazo[4,5-c]pyridin-5-yl)ethyl)bicyclo[2.2.1]heptane-1-carboxylic acid], 17 nM; to `COCC12CCC(CCN3CCc4c(nc(C(=O)Nc5cccc(-c6cccc(NC(=O)c7nc8c(n7C)CCN(CCC79CCC(C(=O)O)(CC7)C9)C8)c6C)c5Cl)n4C)C3)(CC1)C2` [Compound I-4, 4-(2-(2-((2′-chloro-3′-(5-(2-(4-(methoxymethyl)bicyclo[2. 2.1]heptan-1-yl)ethyl)-1-methyl-4,5,6,7-tetrahydro-1H-imidazo[4,5-c]pyridine-2-carboxamido)-2-methyl-[1 ,1′-biphenyl]-3-yl)carbamoyl)-1-methyl-1,4,6,7-tetrahydro-5H-imidazo[4,5-c]pyridin-5-yl)ethyl)bicyclo[2.2.1]heptane-1-carboxylic acid], 28.3 nM.
`COCC12CCC(CCN3CCc4c(nc(C(=O)Nc5cccc(-c6cccc(NC(=O)c7nc8c(n7C)CCN(CCC79CCC(C(=O)O)(CC7)C9)C8)c6Cl)c5C)n4C)C3)(CC1)C2` [Compound I-5, 4-(2-(2-((2-chloro-3′-(5-(2-(4-(methoxymethyl)bicyclo[2.2.1]heptan-1-yl)ethyl)-1-methyl-4,5,6,7-tetrahydro-1H-imidazo[4,5-c]pyridine-2-carboxamido)-2′-methyl-[1,1′-biphenyl]-3-yl)carbamoyl)-1-methyl-1,4,6,7-tetrahydro-5H-imidazo [4,5-c]pyridin-5-yl)ethyl)bicyclo[2.2.1]heptane-1-carboxylic acid] registered an EC50 of 26.7 nM.
To `Cn1c(C(=O)Nc2cccc(-c3cccc(NC(=O)c4nc5c(n4C)CCN(CCC46CCC(C(=O)O)(CC4)C6)C5)c3Cl)c2Cl)nc2c1CCN(CCC13CCC(COC(F)F)(CC1)C3)C2` [Compound I-7, 4-(2-(2-((2,2′-dichloro-3′-(5-(2-(4-((difluoromethoxy)methyl)bicyclo[2.2.1]heptan-1-yl)ethyl)-1-methyl-4,5,6,7-tetrahydro-1H-imidazo[4,5-c]pyridine-2-carboxamido)-[1,1′-biphenyl]-3-yl)carbamoyl)-1-methyl-1,4,6,7-tetrahydro-5H-imidazo[4,5-c]pyridin-5-yl)ethyl)bicyclo[2.2.1]heptane-1-carboxylic acid] belongs 39.2 nM.
To `COCC12CCC(CN3CCc4c(nc(C(=O)Nc5cccc(-c6cccc(NC(=O)c7nc8c(n7C)CCN(CCC79CCC(C(=O)O)(CC7)C9)C8)c6Cl)c5Cl)n4C)C3)(CC1)C2` [Compound I-8, 4-(2-(2-((2,2′-dichloro-3′-(5-((4-(methoxymethyl)bicyclo[2.2.1]heptan-1-yl)methyl)-1-methyl-4,5,6,7-tetrahydro-1H-imidazo[4,5-c]pyridine-2-carboxamido)-[1, 1′-biphenyl]-3-yl)carbamoyl)-1-methyl-1,4,6,7-tetrahydro-5H-imidazo[4,5-c]pyridin-5-yl)ethyl)bicyclo[2.2.1]heptane-1-carboxylic acid] belongs 30.3 nM; to `COCC12CCC(CCN3CCc4c(nc(C(=O)Nc5cccc(-c6cccc(NC(=O)c7nc8c(n7C)CCN(CCC79CCC(C(=O)O)(CC7)C9)C8)c6Cl)c5F)n4C)C3)(CC1)C2` [Compound I-9, 4-(2-(2-((2-chloro-2′-fluoro-3′-(5-(2-(4-(methoxymethyl)bicyclo[2.2.1]heptan-1-yl)ethyl)-1-methyl-4,5,6,7-tetrahydro-1H-imidazo [4,5-c]pyridine-2-carboxamido)-[1,1′-biphenyl]-3-yl)carbamoyl)-1-methyl-1,4,6,7-tetrahydro-5H-imidazo[4,5-c]pyridin-5-yl)ethyl)bicyclo[2.2.1]heptane-1-carboxylic acid], 6.79 nM; to `Cn1c(C(=O)Nc2cccc(-c3cccc(NC(=O)c4nc5c(n4C)CCN(CCC46CCC(C(=O)O)(CC4)C6)C5)c3Cl)c2F)nc2c1CCN(CCC13CCC(COC(F)F)(CC1)C3)C2` [Compound I-10, 4-(2-(2-((2-chloro-3′-(5-(2-(4-((difluoromethoxy)methyl)bicyclo[2.2.1]heptan-1-yl)ethyl)-1-methyl-4,5,6,7-tetrahydro-1H-imidazo[4,5-c]pyridine-2-carboxamido)-2′-fluoro-[1,1′-biphenyl]-3-yl)carbamoyl)-1-methyl-1,4,6,7-tetrahydro-5H-imidazo[4,5-c]pyridin-5-yl)ethyl)bicyclo[2.2.1]heptane-1-carboxylic acid], 35.5 nM.
In the case of `COCC12CCC(CCN3CCc4c(nc(C(=O)Nc5cccc(-c6cccc(NC(=O)c7nc8c(n7C)CCN(CCC79CCC(C(=O)O)(CC7)C9)C8)c6Cl)c5C#N)n4C)C3)(CC1)C2` [Compound I-11, 4-(2-(2-((2-chloro-2′-cyano-3′-(5-(2-(4-(methoxymethyl)bicyclo[2.2.1]heptan-1-yl)ethyl)-1-methyl-4,5,6,7-tetrahydro-1H-imidazo[4,5-c]pyridine-2-carboxamido)-[1,1′-biphenyl]-3-yl)carbamoyl)-1-methyl-1,4,6,7-tetrahydro-5H-imidazo[4,5-c]pyridin-5-yl)ethyl)bicyclo[2.2.1]heptane-1-carboxylic acid] it was 26.3 nM.
`COCC12CCC(CCN3CCc4c(nc(C(=O)Nc5cccc(-c6cccc(NC(=O)c7nc8c(n7C)CCN(CC79CCC(C(=O)O)(CC7)C9)C8)c6Cl)c5C)n4C)C3)(CC1)C2` [Compound I-12, 4-((2-((2-chloro-3′-(5-(2-(4-(methoxymethyl)bicyclo[2.2.1]heptan-1-yl)ethyl)-1-methyl-4,5,6,7-tetrahydro-1H-imidazo[4,5-c]pyridine-2-carboxamido)-2′-methyl-[1,1′-biphenyl]-3-yl)carbamoyl)-1-methyl-1,4,6,7-tetrahydro-5H-imidazo[4,5-c]pyridin-5-yl)methyl)bicyclo[2.2.1]heptane-1-carboxylic acid] yielded an EC50 of 38.3 nM.
